The text below walks through data of patent US5079358A, “6H-pyrazolo-[4,5,1-d,e]acridin-6-one derivatives having anit-tumor activity” (Kyowa Hakko Kogyo Co., Ltd., priority 1988, dated 1992).

The structures appear in SMILES notation. In brackets after ≈: the same amount, converted by molar mass.

Data set [1] concerns human cancer cells (HeLaS3). As to the kind of experiment: Inhibitory effect on growth of human cancer cells (HeLaS3). Format: cell-based. The settings on record: Homo sapiens, HeLa S3, 72 hours at 37° C., Neutral Red staining, 550 nm, read-out: IC50. As to the method: Inhibitory effect on growth of human cancer cells (HeLaS3):
HeLaS, cells were suspended in a medium comprising MEM medium (Nissui Pharmaceutical Co., Ltd.) and 2 mM glutamine (hereinafter referred to as Medium A) to a concentration of 3×10^4 cells/ml. The cell suspension thus prepared was put into wells of a 96-well microtiter plate in an amount of 0.1 ml/well. The cells on the plate were incubated in a CO2 -incubater at 37° C. for 20 hours, and 0.05 ml of a sample containing a test compound and appropriately diluted with Medium A was added to each well. The cells were further incubated in the CO2 -incubater at 37° C. for 72 hours. After the culture supernatant was removed, a medium comprising Medium A and 0.02% Neutral Red was added to the residue in an amount of 0.1 ml/well, followed by incubation at 37° C. for one hour in the CO2 -incubater, whereby the cells were stained. The culture supernatant was removed and the residue was washed once with physiological saline solution. The pigment was extracted with 0.001 N-HCl/30%-ethanol, and the absorbance was determined at 550 nm with a microplate reader. The absorbance determined for intact cells was compared with that for the cells treated with the test compound of a known concentration, and the concentration of the test compound for inhibiting 50% growth of the cells (IC50) was calculated.

The next data set deals with P388 ascites tumor. As to the kind of experiment: Effect on P388 ascites tumor (increased life span). Format: in vivo. The following applies: P388, ip, intraperitoneal, 24 hours after implantation, male CDF1 mouse. The protocol:
Effect on P388 ascites tumor:
P388 tumor cells (10^6 cells) were implanted intraperitoneally into a DBA/2 mouse and the cells were collected from the ascitic fluid of the animal 7 days after the implantation. The cells were ashed once with sterilized physiological saline solution and then suspended in a sterilized physiological saline solution to prepare a cell suspension containing 5×10^6 cells/ml. The suspension (0.2 ml) was intraperitoneally inoculated into a male CDF1 mouse aged 6 weeks. A test compound was dissolved in physiological saline solution and intraperitoneally administered to the animal 24 hours after implantation of the tumor cells. One test group comprised 5 mice. The mean survival time (days) of a test group which received a test compound at a specified concentration was calculated as T from survival days of animals in the group. ON the other hand, the mean survival time (days) of the non-administered group (C) was obtained in the same manner, and the increased life span (ILS %) was calculated as [(T-C)/C]×100 (%).

Data set [2] can be described thus: Acute toxicity (LD50), single intravenous administration to male ddy mice. The settings on record: mouse, in vivo, 14 days observation, Probit's method. The protocol:
A test compound was administered intravenously once to male ddy mice. One test group comprised ten mice. […] LD50 was calculated from the death rate of each group in accordance with Probit's method.

For orientation: IC50 means the point on the concentration scale where inhibition reaches its midpoint. As usually defined, the ILS is the gain in survival time of treated over control animals, in per cent. A lower ILS goes with little gain in survival. Take `NCCNCCNc1ccc2c(CNCCN)nn3c4cccc(O)c4c(=O)c1c23` [Compound 48, 5-[2-(2-Aminoethylamino)ethyl]amino-2-(2-aminoethyl)aminomethyl-7-hydroxy-6H-pyrazolo[4,5,1-d,e]acridin-6-one]: the IC50 in data set [1] came out at 0.0026 µg/mL (≈ 0.00635 µM). In addition, in the data set with P388 ascites tumor (dose 50 mg/kg), the ILS at 50 mg/kg is > 200%.

In general, LD50 refers to the dose expected to kill half of the subjects tested. High values mean lower toxicity, low ones greater toxicity. As to `CN(C)CCNc1ccc2c(CN(CCO)CCO)nn3c4cccc(O)c4c(=O)c1c23` [Compound 51, 2-Bis(2-hydroxyethyl)aminomethyl-5-(2-dimethylaminoethyl)amino-7-hydroxy-6H-pyrazolo[4,5,1-d,e]acridin-6-one], the ILS at 25 mg/kg in the data set on P388 ascites tumor was > 186%. The same molecule displayed an LD50 at 336 h in data set [2] of 15.7 mg/kg.

In the case of `NCCNCc1nn2c3cccc(O)c3c(=O)c3c(NCCN)ccc1c32` [Compound 28, 5-(2-Aminoethyl)amino-2-(2-aminoethyl)aminomethyl-7-hydroxy-6H-pyrazolo[4,5,1-d,e]acridin-6-one], in the data set with P388 ascites tumor, the ILS at 12.5 mg/kg is > 154%. For the same molecule, the LD50 at 336 h in data set [2] was 15.7 mg/kg.

As to `NCCNc1ccc2c(CN(CCO)CCO)nn3c4cccc(O)c4c(=O)c1c23` [Compound 53, 5-(2-Aminoethyl)amino-2-bis(2-hydroxyethyl)aminomethyl-7-hydroxy-6H-pyrazolo[4,5,1-d,e]acridin-6-one], in the data set with P388 ascites tumor, the ILS at 25 mg/kg is > 100%. Further, the LD50 at 336 h in data set [2] turned out to be 25 mg/kg.

As to `NCCNCc1nn2c3cccc(O)c3c(=O)c3c(NCCNCCO)ccc1c32` [Compound 46, 2-(2-Aminoethyl)aminomethyl-7-hydroxy-5-[2-(2-hydroxyethylamino)ethyl]amino-6H-pyrazolo[4,5,1-d,e]acridin-6-one], in data set [1], the IC50 was 0.003 µg/mL (≈ 0.00731 µM). The ILS at 25 mg/kg in the data set with P388 ascites tumor was > 156%.

In the case of `NCCCNCc1nn2c3cccc(O)c3c(=O)c3c(NCCCN)ccc1c32` [Compound 29, 5-(3-Aminopropyl)amino-2-(3-aminopropyl)aminomethyl-7-hydroxy-6H-pyrazolo[4,5,1-d,e]acridin-6-one], the IC50 in data set [1] was 0.014 µg/mL (≈ 0.0355 µM). For the same molecule, in the data set on P388 ascites tumor, the ILS at 12.5 mg/kg was > 121%.

In the case of `O=c1c2c(O)cccc2n2nc(CNCCN3CCOCC3)c3ccc(NCCN4CCOCC4)c1c32` [Compound 56, 7-Hydroxy-5-(2-morpholinoethyl)amino-2-(2-morpholinoethyl)aminomethyl-6H-pyrazolo[4,5,1-d,e]acridin-6-one], in data set [1], the IC50 came to 0.26 µg/mL (≈ 0.513 µM). The same molecule had an ILS at 100 mg/kg with P388 ascites tumor (dose 100 mg/kg) of 121%.

With `NCCCNCc1nn2c3ccccc3c(=O)c3c(NCCCN)ccc1c32` [Compound 22, 5-(3-Aminopropyl)amino-2-(3-aminopropyl)aminomethyl-6H-pyrazolo[4,5,1-d,e]acridin-6-one], in data set [1], the IC50 turned out to be 0.078 µg/mL (≈ 0.206 µM). This molecule also displayed an ILS at 25 mg/kg in the data set with P388 ascites tumor of 52%.
